Measurements taken from ChEMBL document CHEMBL3588776, “Inhibitors of the human neuraminidase enzymes” (Medchemcomm, 2014).

Target: T1, Sialidase-3 (Homo sapiens, UniProt Q9UQ49)
T1 sequence (Q9UQ49 whole entry): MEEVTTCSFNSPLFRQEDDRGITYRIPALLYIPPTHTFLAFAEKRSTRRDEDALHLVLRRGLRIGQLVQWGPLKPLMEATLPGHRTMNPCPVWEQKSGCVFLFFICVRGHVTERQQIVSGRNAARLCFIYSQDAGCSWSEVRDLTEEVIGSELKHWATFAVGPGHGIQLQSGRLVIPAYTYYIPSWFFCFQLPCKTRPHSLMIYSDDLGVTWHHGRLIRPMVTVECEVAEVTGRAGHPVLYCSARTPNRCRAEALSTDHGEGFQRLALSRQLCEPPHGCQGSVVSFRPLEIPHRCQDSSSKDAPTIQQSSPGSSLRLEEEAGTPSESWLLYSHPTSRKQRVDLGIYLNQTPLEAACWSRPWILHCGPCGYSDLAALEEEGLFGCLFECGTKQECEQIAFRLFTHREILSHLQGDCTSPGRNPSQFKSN
Experiment: Inhibition of human recombinant NEU3 expressed in Escherichia coli pre-incubated for 10 mins before addition of followed by the addition of MUNANA substrate

IC50: 5 µM
SMILES: C#CCCC(=O)N[C@@H]1[C@@H](O)[C@@H](F)[C@](F)(C(=O)O)O[C@H]1[C@H](O)[C@H](O)CO
